Some results are limits rather than exact numbers.

What is called melting point is the temperature, or range, at which the solid turns liquid.

Compound `CCC(c1ccc(C(O)(C(F)(F)F)C(F)(F)F)cc1)S(=O)(=O)c1ccccc1` (stereo unspecified) showed a melting point of 148 °C.
`COC(=O)c1ccccc1Oc1ccc([N+](=O)[O-])cc1` came in with a melting point of 74 °C.
Under `O=C(O)c1ccc2c(c1)C(=O)NC(C(Cl)(Cl)Cl)N2` (stereo unspecified) stands over 280 °C; under `Cc1cc(Br)cnc1CCCCNC1=NS(=O)(=O)N=C1N`, 219 to 220 °C.
Under `CSc1nnc(C(C)C2CC2)c(=O)n1N` (stereo unspecified) stands 111 to 113 °C; under `CC(C)(C#N)c1ccc(-n2c(-c3cc(-c4cnc5ccccc5c4)ccn3)c[nH]c2=O)cc1`, 271 °C.
With `CCCc1cc(N2CCC(NCC(O)c3ccnc4ccccc34)CC2)nc2sc(C(N)=O)c(N)c12` (stereo unspecified), the melting point was 170 to 172 °C.
Next, `COc1c(Cl)ccc(C(=O)O)c1F`: 183 to 184 °C; `COc1ccc2ccc(C(N)=O)c(OC)c2c1`: 134 to 136 °C; `CCOC(=O)c1csc(NCc2ccccc2)n1`: 132 to 136 °C.
Take `COc1ccc(Cn2cc3nc(Cl)nc(-c4c(F)cccc4OC)c3n2)cc1`: the melting point is 180 to 181 °C.
Under `NCCCN1CCOC(c2ccccc2)(c2ccccc2)CC1` stands 68 to 70 °C.
Compound `CS(=O)(=O)c1ccc(-c2oc(-c3ccccc3)nc2-c2ccc(F)cc2)cc1` had a melting point of 204 to 205 °C.
Turning to `CCCN(CCN1CCN(C(=O)c2n[nH]c3ccccc23)CC1)C1CCc2c(O)cccc2C1` (stereo unspecified), the melting point was in the range of 167 to 170 °C.
Next, `N#Cc1c(-c2ccc(Cl)c(Cl)c2)cc(C2CC2)nc1Cl`: 158 to 160 °C.
Under `Cc1ccc2c(c1)c(=O)oc(=O)n2C` stands 153 °C; under `COc1ccc(NC(=O)OC(C)(C)C)cc1`, 93 to 94 °C; under `O=C1N[C@H](/C=C/c2ccccc2)[C@@H]1N1C(=O)c2ccccc2C1=O` (relative stereo), 168 to 170 °C.
In turn, `COc1ccc(Nc2nc(NC(C)C)nc(Oc3ccccc3C#CC(C)(C)O)n2)cc1Cl` registered a melting point of 138 to 140 °C.
On to `Cc1cccc(OC(C)C)c1S(N)(=O)=O`, for which the melting point came to 78 °C.
For the compound `CC1(CCS)C(=O)N2CC=CC(C(=O)O)N2C1=O` (stereo unspecified), the melting point is 113 to 114 °C.
`O=C(O)CS(=O)(=O)c1ccc2c(-c3ccc(Cl)cc3)noc2c1Cl` had a melting point of 212 to 213 °C.
In turn, `CNc1cc(OC)c(C(=O)NCC23CCCN(CCC2)C3)cc1Cl` registered a melting point of 188 to 190 °C.
`CCc1nc2c(cnn2CC)c(NC2CCOCC2)c1CNC(=O)c1cccc(C(=O)NCc2ccc(F)c(-c3cccc(CN(C)CCN(C)C)c3)c2)c1` gave a melting point of 126 to 129 °C.
As for `CC(=O)c1cn(C)cc(-c2cccc(Cl)c2)c1=O`, the melting point lay in the range of 175 to 177 °C.
Next, `CC(=O)c1ccc(C2CCCC2)cc1`: 100 to 102 °C.
Next, `CC(C)Oc1ccc(-c2noc(-c3ccc(CN4CC(C(=O)O)C4)cc3)n2)cc1Cl`: 195 to 196 °C.
Next, `CC(=O)c1ccc(CC(=O)OC(C)(C)C)cc1`: 50 to 52 °C; `COc1ccc(CCCCOc2cc(-c3nc4cc(C(=O)O)ccc4[nH]3)ccc2OC)cc1`: 167 to 169 °C; `COC(=O)c1cc(C(=O)OC)cc(P(c2ccccc2)c2ccccc2)c1`: 103 to 104 °C.
The compound `CN1CCc2cc(S(=O)(=O)Nc3cnc4cc(Cl)ccc4n3)ccc21` returned a melting point of 189 to 190 °C.
Next, `CCOC(=O)c1ccc(-c2cc(-c3ccc4c(c3)C(C)(C)CCC4(C)C)ccc2OS(=O)(=O)C(F)(F)F)cc1`: 110 to 113 °C; `Cc1ccc(SN(CC(=O)OCc2ccccc2)CP(=O)(Oc2ccccc2)Oc2ccccc2)cc1`: 108 to 111 °C.
`Fc1ccc(-n2c(OCCN3CCCC3)cc3ccc(Cl)cc32)cc1` showed a melting point of 60 to 62 °C.
Under `O=C(OCc1ccccc1)c1cc2cc([N+](=O)[O-])ccc2[nH]1` stands 192 °C.
Regarding `CCN(CC)c1nc(N)nc(-c2cc(Cl)ccc2Cl)n1`, the melting point was in the range of 137 to 138 °C.
On to `Nc1nc(NCCOc2ccccc2)nc(-c2cc(Cl)ccc2Cl)n1`, for which the melting point was in the range of 172 to 173 °C.
The compound `CCN1C(=O)OC(=Cc2ccc3c(c2)OCO3)C1=O` returned a melting point of 135 to 137 °C.
Take `CSC(=S)Nc1ccc(C)cc1C(=O)O`: the melting point is 199 °C.
Next, `Cc1oncc1C(=O)Nc1ccc(-n2nc(C(F)(F)F)cc2C(F)(F)F)cc1`: 163 to 167 °C.
Under `N=C(N)c1ccc(C(=O)N[C@@H](Cc2ccccc2)C(=O)N2CCc3nn(CC(=O)O)cc3C2)cc1` stands 146 to 150 °C; under `COc1cc(C2C3=C(CNC3=O)Nc3cc4c(cc32)OCO4)cc(OC)c1OC` (stereo unspecified), 244 °C; under `COc1cc2c3c(n(C)c(=O)c2cc1OC)-c1cc2c(cc1C3=CCCCCCBr)OCO2`, 182 to 185 °C.
Consider `CC(=O)C1=NN(c2ccc(C(=O)O)c(Cl)c2)C(=O)C1`, for which the melting point was over 250 °C.
On to `CSc1ccc(C2=NC[C@@H](OC(=O)Nc3ccccc3)[C@H](c3ccccc3)O2)cc1` (racemic), for which the melting point came out at 170 °C.
Compound `N#CC[C@@H]1CC[C@@H]2CN(c3noc4ccccc34)CCN2C1` (relative stereo) came in with a melting point of 184 to 186 °C.
Take `Cc1c(-c2ccccn2)c(N2CC[C@H](N(C)C)C2)c2oc(C3CC3)nc2c1C#N`: the melting point was 150 to 151 °C.
Under `COC(=O)c1cn(-c2ccc(OC)c(OC3CC4CCC3C4)c2)c2ccccc12` (stereo unspecified) stands 120 to 122 °C; under `CC(=O)Nc1c(I)c(C(=O)O)c(I)c(C(=O)NCC(=O)O)c1I`, 201 to 202 °C; under `CC(=O)NC1Cc2cccc3cccc(c23)C1`, 180 to 181 °C.
Under `Cc1c(CC(=O)O)c2cc(OCc3ccc4ccccc4n3)ccc2n1C` stands 186 to 188 °C; under `O=C(Cc1ccc2ccccc2c1)N1CC=C(c2cccc(C(F)(F)F)c2)CC1`, 125 to 130 °C; under `Cc1cnc2c3c(nccc13)C(=O)c1ccccc1-2`, 208 to 210 °C.
Under `CSC(=N[N+](=O)[O-])NC(C)=O` stands 109 to 110 °C; under `O=C(CCCOc1cc(-c2ccccc2)ccc1O)NO`, 148 to 152 °C.
In turn, `CCOC(=O)C1COc2cc(OC(C)=O)ccc2O1` (stereo unspecified) yielded a melting point of 66 °C.
`COC(=O)c1c(C(C)C)nc2c(c1-c1ccc(F)cc1)CCCN2` gave a melting point of 168 to 170 °C.
In the case of `Nc1nc2ccccc2c2c1nc(CC1CC1)n2CCOc1ccccc1`, the melting point lay within 192 to 193 °C.
For the compound `Cc1nc(C#Cc2ccccc2)n(C)c1-c1nc(C2CC2)no1`, the melting point was found to be 88 °C.
`O=S1(=O)c2cccc3cccc(c23)N1CC(O)CN1CCN(c2ccc(F)cc2)CC1` (stereo unspecified): the melting point was 130 °C.
In the case of `CC(C)=CCn1c(=S)sc2c(=O)[nH]c(N)nc21`, the melting point is over 320 °C.
Next, `CCCn1c(=O)c2c(ncn2CC(O)CO)n(CCC)c1=O` (stereo unspecified): 88 to 91 °C; `COC(=O)c1ccc(Cl)cc1SCCC(=O)O`: 133 to 136 °C.
Next, `Cc1cc(Cl)cc2c1OCCCC2=O`: 56 to 58 °C.
Next, `Cc1cc2c(c(C)c1NC(=O)NC(C)(C)C)C(c1ccc(C(C)C)cc1)CO2` (single isomer, unassigned; (+)): 205 to 206 °C; `Clc1ccc(C2(c3ccc4noc(-c5ccccc5)c4c3)OCCO2)cc1`: 143 °C.
`Cc1ccc(C)c(C2=C(O)C(CC3CCS(=O)(=O)CC3)NC2=O)c1` (stereo unspecified) showed a melting point of 244 to 246 °C.
On to `CCCC(CCC)C(=O)N[C@@H](Cc1ccccc1)C(=O)N[C@H]1CCOC1=O`, for which the melting point is 203 to 205 °C.
In the case of `CNC(=O)n1cnc(C)c1Br`, the melting point lay in the range of 98.4 to 100 °C.
As to `CCOC(=O)/C=C/c1cnc(Cl)nc1`, the melting point was 125 to 127 °C.
Next, `CCOCc1cc(N)ccc1N1C(=O)c2ccc(Cl)cc2C1=O`: 154 to 156 °C; `O=C(Nc1ccccc1)N1CCc2cc(S(=O)(=O)N3CCN(c4cccc(Cl)c4)CC3)ccc21`: 177 to 178 °C.
Turning to `COc1ccc2c(c1)c(CC(=O)O)c(C)n2C(=O)c1cccc(Cl)c1`, the melting point fell in the range of 90 to 92 °C.
Under `COC(=O)[C@H](CC(C)C)NC(=O)c1ccc2c(c1)Nc1ccccc1S2` stands 160 to 161 °C.
Next, `COc1ccc2sc(C(N)=O)c(SCc3ccccc3)c2c1`: 151 to 153 °C; `CN1C(=O)NC(=O)C1O` (stereo unspecified): 135 to 136 °C; `Cc1ccc(-c2ncc(C)c(C)n2)cc1`: 114 °C.
Next, `N#Cc1ccc(-c2cnc(F)c(OC3SCC(O)C(O)C3O)c2)cc1` (stereo unspecified): 220 °C; `Oc1ccc(CCNCC(O)c2ccccn2)cc1` (racemic): 112 to 114 °C.
Consider `CCOC(=O)C1=C(COCc2nnc(CN(C)C)s2)NC(C)=C(C(=O)OC)C1c1cccc(Cl)c1Cl` (stereo unspecified), for which the melting point lay in the range of 168 to 170 °C.
`CS(=O)(=O)c1ccc(-c2cc(C(=O)c3cccnc3)sc2N2CCOCC2)cc1` registered a melting point of 122 °C.
Turning to `OCc1nn(-c2ccccc2)c2c1CCCC2`, the melting point was 75 to 77 °C.
Next, `N#CCOc1ccccc1S(N)(=O)=O`: 184 to 185 °C; `COc1ccc(S(=O)(=O)Nc2nc(-c3cccc([N+](=O)[O-])c3)cs2)cc1`: 157 to 159 °C.
Next, `CC1(C)CN2C(=NS(=O)C2=Nc2ccc(Cl)cc2)S1` (stereo unspecified): 121 to 124 °C.
Under `CN1CCN(c2ccc(N)cc2F)CC1` stands 89 to 91 °C.
`CSc1c(C#N)c(=O)n2ccccc2c1C(C)=O` gave a melting point of 178 °C.
For the compound `COCOC1CCC2(C)C(=CCC3C4CCC(=O)C4(C)CCC32)C1` (stereo unspecified), the melting point was in the range of 130 to 132 °C.
As for `Cc1cc(C#N)cc(C)c1Oc1ncnc(Nc2ccc(C#N)cc2)n1`, the melting point fell in the range of 248 to 250 °C.
`NC(=O)N(O)CCc1ccc(Sc2cccc(C(F)(F)F)c2)s1` registered a melting point of 124 to 126 °C.
`O=C(/C=C/c1ccc(C(=O)Nc2cccc(Nc3nc(-c4cccnc4)cs3)c2)cc1)NO` gave a melting point of 101 °C.

The values are drawn from a melting point compilation (Tetko et al.; mined from patent text by program, amines drawn as free bases though some values may be those of a salt).
